In paper PMC11484510, “Antibacterial activity of structurally diverse natural prenylated isobavachalcone derivatives” (RSC Advances, 2024):
In brackets after ≈: the same amount, converted by molar mass. Read-outs that look alike come from different tables or passages of the source.

Legend:
MRSA ATCC 15187 [1] = test: MIC, broth microdilution (CLSI), Alamar blue; format: cell-based, Methicillin-resistant S. aureus; conditions: MRSA ATCC 15187, 24 hours at 37 °C, read-out: Minimum inhibitory concentration (MIC) MRSA
Excerpt: (§1) The bacterial strains S. aureus ATCC 29213, MRSA ATCC 15187, E. coli ATCC 25922, and P. aeruginosa ATCC 27853 were obtained from ATCC (American Type Culture Collection). Cation-adjusted Mueller–Hinton broth (MHB; Becton–Dickinson, Cockeysville, MD) was used to determine the minimum inhibitory concentration (MIC). Mueller–Hinton agar (MHA; Becton–Dickinson) was used for minimum bactericidal concentration (MBC) studies. Alamar blue (Himedia) was used to detect the MIC value.
The antibacterial activity of the compounds against S. aureus ATCC 29213, MRSA ATCC 15187, E. coli ATCC 25922, and P. aeruginosa ATCC 27853 was determined through a broth microdilution method according to the guidelines of the Clinical and Laboratory Standards Institute (CLSI).[50] […] Growth control and media control were employed along with 2% DMSO as vehicle control.
In a 96-well flat bottom plate, the test compounds were two-fold serially diluted in Mueller Hinton Broth (MHB). The final concentrations of the compounds ranged from 100 to 0.08 μM. 100 μL of standardized bacterial inoculum with turbidity equivalent to 0.5 McFarland standard (1.5 × 10^8 CFU mL^−1) was diluted 1 : 100 (1.5 × 10^6 CFU mL^−1) in Mueller Hinton Broth and inoculated in the plates.[51] The plates were incubated for 24 hours at 37 °C. After incubation, 10 μL of freshly prepared Alamar blue (Himedia) was added to each well of the plate, and plates were further incubated at 37 °C for 30 minutes. After incubation, the fluorescence was measured at excitation/emission of 540–570/580–610 nm. The percentage inhibition and viability were calculated for the controls, and the Gompertz curve was utilized to estimate the minimum inhibitory concentration.

S. aureus = test: Combinational study (checkerboard microdilution) with standard drugs; format: cell-based; conditions: S. aureus
Description: The Fractional Inhibitory Concentration Index (FICI) was calculated for each test compound and reference drug to find the combinational effect.
In a 96-well flat bottom plate, the reference drug with 4× MIC was serially diluted horizontally. The test compounds with 4× MIC were serially diluted two-fold outside the plate in 1.5 mL Eppendorf's using Mueller Hinton Broth (MHB). These two serially diluted compounds were combined to create drug-compound combinations in the plate. The reference drug (horizontally) and tested compounds (vertically) alone were serially diluted for MIC determination. 100 μL of the standardized bacterial inoculum with a turbidity equivalent to a 0.5 McFarland standard were diluted 1 : 100 in Mueller Hinton Broth and inoculated in the plates. The plates were incubated for 24 hours at 37 °C. After incubation, 10 μL of freshly prepared Alamar blue (Himedia) was added to each well of the plate, and the plates were further incubated at 37 °C for 30 minutes. After incubation, the plates were visually observed. […] The FICI was calculated using the formula FICI = FIC of compound + FIC of drug. The calculation followed is FICI (CA/(MICA)) + (CB/(MICB)), where CA is the MIC of the compound in combination, CB is the MIC of the drug in combination, and MICA and MICB are the MIC values of individual compounds and drugs, respectively. The range selection followed the interpretation criteria. The FICI range of 0.5 to 4 indicates indifference, ≤ or =0.5 indicates synergy and >4 indicates antagonism.[57]

MRSA ATCC 15187 [2] = test: MBC, plating on MHA; format: cell-based, Methicillin-resistant S. aureus; conditions: Staphylococcus aureus; more than 99.9% of the cells killed; read-out: Minimum bactericidal concentration (MBC) MRSA
Excerpt: as §1
(§2) MBC is defined as the lowest concentration of the compound at which more than 99.9% of the cells were killed compared with the growth control. The minimum compound concentration at which no visible bacterial growth was observed was taken as the Minimum Bactericidal Concentration (MBC).[50]

E. coli ATCC 25922 = test: MBC, plating on MHA; format: cell-based; conditions: Escherichia coli, ATCC25922; more than 99.9% of the cells killed; read-out: Minimum bactericidal concentration (MBC) E. coli
Excerpt: as §1, §2

**Q.** `CC(C)=CCc1c(O)ccc2c1O/C(=C\c1ccc(O)cc1)C2=O` [IBC-3, (Z)-6-hydroxy-2-(4-hydroxybenzylidene)-7-(3-methylbut-2-en-1-yl)benzofuran-3(2H)-one] was tested. Which MIC (MRSA ATCC 15187 [1]) did it give?
**A.** Its MIC is 6 µM (≈ 1.93 µg/mL).

**Q.** What about the MIC (MRSA ATCC 15187 [1]; Staphylococcus aureus) of the same compound?
**A.** Its MIC is 6 µM (≈ 1.93 µg/mL).

**Q.** And the “MIC combination (compound)” value (S. aureus; MIC of the compound in combination with ciprofloxacin)?
**A.** Its value is 5 µM.

**Q.** What about the “MIC combination (compound)” value (S. aureus; MIC of the compound in combination with vancomycin) of the same compound?
**A.** The value was 5 µM.

**Q.** And the MIC (S. aureus; Staphylococcus aureus, checkerboard, substance alone, read-out: MIC alone)?
**A.** The MIC was 10 µM.

**Q.** What about the Outcome of combination (S. aureus; compound with ciprofloxacin) of the same compound?
**A.** Its Outcome of combination is “Indifference (The FICI range of 0.5 to 4 indicates indifference)”.

**Q.** And the “∑ FICI” value (S. aureus; compound with ciprofloxacin)?
**A.** Its value is 1.

**Q.** What about the “∑ FICI” value (S. aureus; compound with vancomycin) of the same compound?
**A.** The value was 0.5.

**Q.** What about the MBC (MRSA ATCC 15187 [2]) of the same compound?
**A.** Its MBC is 25 µM (≈ 8.06 µg/mL).

**Q.** What about the MBC (E. coli ATCC 25922) of the same compound?
**A.** Its MBC is 25 µM (≈ 8.06 µg/mL).
